Assay results from EP4596574A1, “GLP-1/GCG/GIP TRIPLE-RECEPTOR AGONIST AND USE THEREOF” (Sunshine Lake Pharma Co., Ltd., priority 2022, dated 2024).
Marks after values point to notes of the source that are not given here.

How the values were obtained:
GLP-1R = target: T1, GLP-1R (Homo sapiens, UniProt P43220); assay: In vitro cell activity, cAMP production in HEK293 cells expressing GLP-1R; format: cell-based
T1 construct: expressed in transfected cells; host or cells: HEK293 (HEK293-GLP-1R)
How it was run: (§1)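 Assay format: cells at 4×10^5 cells/mL, cAMP sensed by d2/cryptate FRET pair, dual-wavelength read at 665 and 620 nm. Potency expressed as EC50 from nonlinear fitting.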

GIPR = target: T2, GIPR (Homo sapiens, UniProt P48546); assay: In vitro cell activity, cAMP production in HEK293 cells expressing GIPR; format: cell-based
T2 construct: expressed in transfected cells; host or cells: HEK293 (HEK293-GIPR)
T2 sequence (P48546 22-466): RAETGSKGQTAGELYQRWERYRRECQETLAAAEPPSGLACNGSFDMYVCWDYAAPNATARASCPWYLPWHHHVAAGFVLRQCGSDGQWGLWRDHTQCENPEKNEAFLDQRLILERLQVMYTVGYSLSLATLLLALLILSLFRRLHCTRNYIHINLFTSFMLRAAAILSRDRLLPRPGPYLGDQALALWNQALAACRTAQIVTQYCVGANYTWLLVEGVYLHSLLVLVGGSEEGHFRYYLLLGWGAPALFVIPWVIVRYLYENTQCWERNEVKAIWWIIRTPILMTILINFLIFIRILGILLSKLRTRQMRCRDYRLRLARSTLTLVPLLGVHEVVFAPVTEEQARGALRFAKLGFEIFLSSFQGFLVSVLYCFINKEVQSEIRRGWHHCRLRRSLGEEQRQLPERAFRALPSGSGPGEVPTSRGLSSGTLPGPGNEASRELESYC
How it was run: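 cAMP accumulation is quantified by homogeneous TR-FRET (cAMP-d2 plus anti-cAMP cryptate) in GIPR-expressing HEK293 cells seeded from a 4×10^5 cells/mL suspension and treated with compound. The signal ratio is plotted against concentration and fitted to a four-parameter curve to give EC50.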

[1] = In vivo efficacy evaluation in db/db mouse model (blood glucose); set-up: species or system db/db mice
Description: Blood glucose was tested before each administration.

[2] = Long-term repeated administration in diet-induced obese C57BL/6 mice (DIO); format: in vivo, C57/BL6 mice
GCGR = target: T3, GCGR (Homo sapiens, UniProt P47871); assay: In vitro cell activity, cAMP production in HEK293 cells expressing GCGR; format: cell-based
T3 construct: expressed in transfected cells; host or cells: HEK293 (HEK293-GCGR)
How it was run: as §1

[3] = 10 nmol/kg s.c. once every 3 days, D7
[4] = 10 nmol/kg s.c. once every 3 days, D10
[5] = 10 nmol/kg s.c. once every 3 days, D13
[6] = 10 nmol/kg s.c. once every 3 days, D16
[7] = 10 nmol/kg s.c. once every 3 days, D19
[8] = 10 nmol/kg s.c. once every 3 days, D22
[9] = 10 nmol/kg s.c. once every 3 days, D25
[10] = 10 nmol/kg s.c. once every 3 days, D28
[11] = after 4 weeks of administration
[12] = after 4 weeks of administration, same dose
[13] = long-term administration 10 nmol/kg, 72 h after the last administration
[14] = long-term administration 10 nmol/kg, blood biochemical index

T1 sequence (P43220 24-463, species assumed): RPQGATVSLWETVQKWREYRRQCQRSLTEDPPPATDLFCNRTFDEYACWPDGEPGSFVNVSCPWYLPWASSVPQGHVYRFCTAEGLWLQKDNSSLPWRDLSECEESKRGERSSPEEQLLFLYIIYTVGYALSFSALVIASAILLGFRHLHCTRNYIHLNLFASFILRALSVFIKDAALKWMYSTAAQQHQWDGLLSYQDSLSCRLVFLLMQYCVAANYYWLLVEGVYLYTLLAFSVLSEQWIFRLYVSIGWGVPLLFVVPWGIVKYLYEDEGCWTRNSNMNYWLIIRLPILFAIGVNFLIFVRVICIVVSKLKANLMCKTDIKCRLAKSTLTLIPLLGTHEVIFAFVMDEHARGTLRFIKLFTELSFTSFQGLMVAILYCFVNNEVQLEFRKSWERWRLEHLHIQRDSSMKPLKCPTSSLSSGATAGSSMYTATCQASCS
T3 sequence (P47871 26-477, species assumed): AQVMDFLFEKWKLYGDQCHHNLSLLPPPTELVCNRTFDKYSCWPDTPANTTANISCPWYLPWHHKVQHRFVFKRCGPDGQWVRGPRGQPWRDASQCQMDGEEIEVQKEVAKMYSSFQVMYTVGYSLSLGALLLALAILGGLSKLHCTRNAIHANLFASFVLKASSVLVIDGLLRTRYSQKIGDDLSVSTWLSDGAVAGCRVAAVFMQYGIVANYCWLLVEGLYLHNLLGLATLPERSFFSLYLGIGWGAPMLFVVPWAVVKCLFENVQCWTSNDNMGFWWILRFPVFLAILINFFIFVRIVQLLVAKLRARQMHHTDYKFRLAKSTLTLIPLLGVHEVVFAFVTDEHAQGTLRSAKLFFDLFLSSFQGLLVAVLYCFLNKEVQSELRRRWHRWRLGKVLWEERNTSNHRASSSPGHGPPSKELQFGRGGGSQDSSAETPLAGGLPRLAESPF

For `CC[C@H](C)[C@H](NC(=O)[C@H](Cc1ccccc1)NC(=O)[C@H](CCC(=O)O)NC(=O)[C@H](CCCNC(=N)N)NC(=O)[C@H](CCC(N)=O)NC(=O)[C@H](CCCNC(=N)N)NC(=O)[C@H](CCCCNC(=O)COCCOCCNC(=O)CC[C@H](NC(=O)CCCCCCCCCCCCCCCCC(=O)O)C(=O)O)NC(=O)[C@H](CCC(=O)O)NC(=O)[C@H](CC(=O)O)NC(=O)[C@H](CC(C)C)NC(=O)[C@H](CC(C)C)NC(=O)[C@@H](NC(=O)[C@H](CO)NC(=O)[C@H](Cc1ccc(O)cc1)NC(=O)[C@H](CC(=O)O)NC(=O)[C@H](CO)NC(=O)[C@@H](NC(=O)[C@](C)(Cc1ccccc1F)NC(=O)[C@@H](NC(=O)CNC(=O)[C@H](Cc1c[nH]cn1)NC(=O)C(C)(C)NC(=O)[C@@H](N)Cc1ccc(O)cc1)[C@@H](C)O)[C@@H](C)O)[C@@H](C)CC)C(=O)N[C@@H](CCC(=O)O)C(=O)N[C@@H](Cc1c[nH]c2ccccc12)C(=O)N[C@@H](CC(C)C)C(=O)N[C@@H](CC(C)C)C(=O)N[C@@H](C)C(=O)NCC(=O)NCC(=O)N1CCC[C@H]1C(=O)N[C@@H](CO)C(=O)N[C@@H](CO)C(=O)NCC(=O)N[C@@H](C)C(=O)N1CCC[C@H]1C(=O)N1CCC[C@H]1C(=O)N1CCC[C@H]1C(=O)N[C@@H](CO)C(=O)O` [HEC-PT77], the EC50 (GLP-1R) was 65.6 pM, the EC50 (GIPR) was 22.7 pM and the “blood glucose after administration” value ([1]; db/db mice, 10 nmol/kg) was “significantly reduce blood glucose”. For the same compound, the “Random blood glucose (mM) D0” value ([1]; db/db mice, 10 nmol/kg s.c. once every three days, D0 (before first dose)) was 26.6 ± 4.2 mM, the “Random blood glucose (mM) D3” value ([1]; db/db mice, 10 nmol/kg s.c. once every three days, D3) was 15.8 ± 4.0 mM and the “Random blood glucose (mM) D4” value ([1]; db/db mice, 10 nmol/kg s.c. once every three days, D4) was 17.8 ± 5.9 mM. The “Random blood glucose (mM) D5” value ([1]; db/db mice, 10 nmol/kg s.c. once every three days, D5) was 21.5 ± 5.6 mM, the “Random blood glucose (mM) D6” value ([1]; db/db mice, 10 nmol/kg s.c. once every three days, D6) was 24.1 ± 4.6 mM and the “Random blood glucose (mM) D7” value ([1]; db/db mice, 10 nmol/kg s.c. once every three days, D7) was 21.9 ± 3.9 mM. For the same compound, the “Random blood glucose (mM) D10” value ([1]; db/db mice, 10 nmol/kg s.c. once every three days, D10) was 13.4 ± 5.4 mM, the “Random blood glucose (mM) D13” value ([1]; db/db mice, 10 nmol/kg s.c. once every three days, D13) was 15.7 ± 5.4 mM and the “Random blood glucose (mM) D16” value ([1]; db/db mice, 10 nmol/kg s.c. once every three days, D16) was 12.7 ± 6.1 mM. For the same compound, the “Random blood glucose (mM) D19” value ([1]; db/db mice, 10 nmol/kg s.c. once every three days, D19) was 15.5 ± 4.6 mM, the “Random blood glucose (mM) D22” value ([1]; db/db mice, 10 nmol/kg s.c. once every three days, D22) was 15.6 ± 6.1 mM and the “Random blood glucose (mM) D25” value ([1]; db/db mice, 10 nmol/kg s.c. once every three days, D25) was 14.2±5.1^a mM. For the same compound, the “Random blood glucose (mM) 6 h” value ([1]; db/db mice, 10 nmol/kg s.c., 6 h) was 15.9 ± 5.9 mM, the “Random blood glucose (mM) 24 h” value ([1]; db/db mice, 10 nmol/kg s.c., 24 h) was 8.1 ± 4.5 mM and the “Random blood glucose (mM) 48 h” value ([1]; db/db mice, 10 nmol/kg s.c., 48 h) was 11.1 ± 6.2 mM. For the same compound, the “time at which blood glucose levels reached the lowest level” value ([1]; db/db mice, 10 nmol/kg, after administration) was “about 24 hours”, the “blood glucose lowering after long-term administration compared with LY3298176” value ([1]; db/db mice, long-term repeated administration) was “not inferior to the positive control LY3298176” and the “blood glucose reducing effect after administration compared with LY3298176” value ([1]; db/db mice, same dose 10 nmol/kg) was “slightly better than the positive control LY3298176”. The “blood glucose level after long-term administration” value ([1]; type II diabetes model db/db mice) was “significantly improve the blood glucose level”, the “Cumulative food intake (g/pcs) D7” value [2, 3] was 8.7 g/pcs and the “Weight gain rate (%) D7” value [2, 3] was -14.9±3.8%. For the same compound, the “Cumulative food intake (g/pcs) D10” value [2, 4] was 11.4 g/pcs, the “Weight gain rate (%) D10” value [2, 4] was -20.9±4.0% and the “Cumulative food intake (g/each) D13” value [2, 5] was 14.4 g/each. The “Weight gain rate (%) D13” value [2, 5] was -24.7±5.5%, the “Cumulative food intake (g/each) D16” value [2, 6] was 19.1 g/each and the “Weight gain rate (%) D16” value [2, 6] was -26.6±5.6%. The “Cumulative food intake (g/each) D19” value [2, 7] was 24.7 g/each, the “Weight gain rate (%) D19” value [2, 7] was -27.7±5.5% and the “Cumulative food intake (g/each) D22” value [2, 8] was 30.6 g/each. For the same compound, the “Weight gain rate (%) D22” value [2, 8] was -28.9±6.4%, the “Cumulative food intake (g/each) D25” value [2, 9] was 36.7 g/each and the “Weight gain rate (%) D25” value [2, 9] was -31.2±6.9%. The “Cumulative food intake (g/each) D28” value [2, 10] was 43.7 g/each, the “Weight gain rate (%) D28” value [2, 10] was -30.4±5.2% and the “Cumulative food intake (g/each) D30” value ([2]; 10 nmol/kg s.c. once every 3 days, D30) was 47.5^a g/each. For the same compound, the “Weight gain rate (%) D31” value ([2]; 10 nmol/kg s.c. once every 3 days, D31) was -30.2±4.9^a %, the “Cumulative food intake (g/pcs) D0” value ([2]; 10 nmol/kg s.c., D0) was 2.4 g/pcs and the “Weight gain rate (%) D0” value ([2]; 10 nmol/kg s.c., D0) was 0.0±0.0%. For the same compound, the “Cumulative food intake (g/pcs) D1” value ([2]; 10 nmol/kg s.c., D1) was 2.8 g/pcs, the “Weight gain rate (%) D1” value ([2]; 10 nmol/kg s.c., D1) was -5.5±0.7% and the “Cumulative food intake (g/pcs) D2” value ([2]; 10 nmol/kg s.c., D2) was 3.6 g/pcs. The “Weight gain rate (%) D2” value ([2]; 10 nmol/kg s.c., D2) was -7.7±1.9%, the “Cumulative food intake (g/pcs) D3” value ([2]; 10 nmol/kg s.c., D3) was 4.7 g/pcs and the “Weight gain rate (%) D3” value ([2]; 10 nmol/kg s.c., D3) was -8.4±0.9%. For the same compound, the “Cumulative food intake (g/pcs) D4” value ([2]; 10 nmol/kg s.c., D4) was 6.3 g/pcs, the “Weight gain rate (%) D4” value ([2]; 10 nmol/kg s.c., D4) was -7.1±3.5% and the “liver function and blood lipids of DIO mice” value [2, 11] was “significantly improved the liver function and blood lipids”. The “weight loss and food intake inhibition effects compared with Semaglutide” value [2, 11] was “superior to the positive drug Semaglutide”, the “food intake inhibition effect compared with LY3298176” value [2, 12] was “comparable to those of the same dose of the positive drug LY3298176” and the “weight loss effect compared with LY3298176” value [2, 12] was “comparable to those of the same dose of the positive drug LY3298176”. The Liver index/% [2, 13] was 2.7±0.0^a %, the Liver/g [2, 13] was 0.9±0.1^a g and the Weight/g [2, 13] was 31.5±3.2^a g. The “ALT (U/L)” value [2, 14] was 29.1±5.8^a U/L, the “AST (U/L)” value [2, 14] was 112.0±20.9^a U/L and the “CHOL (mmol/L)” value [2, 14] was 3.2±0.5^a mmol/L. The “TRIGL (mmol/L)” value [2, 14] was 0.6±0.1^a mmol/L and the EC50 (GCGR) was 144 pM.
